Assay [1] relates to A549 (expressing wild-type EGFR gene). Description: Cancer cell growth, Cell Titer-Glo, 72 h: A549. The settings on record: Homo sapiens. The assay is classed as cell-based. The text has this: (§1) Compounds of the present invention were further evaluated for their selectivity in inhibiting proliferation of cancer cells by testing effects of the novel kinase inhibitors on proliferation of cancer cells. In the examples the following cells were selected: human non-small cell lung cancer cell NCI-H1975 (expressing EGFR L858R/T790M double-mutant gene), human-derived non-small cell lung cancer cell PC-9 (expressing EGFR delE746_A750 mutant gene), human-derived non-small cell lung cancer cell HCC827 (expressing EGFR delE746_A750 mutant gene), human lung adenocarcinoma cell HCC4006 (expressing EGFR delE746_A750 mutant gene), human non-small cell lung cancer cell NCI-H3255 (expressing EGFR L858R mutant gene), human skin squamous carcinoma cell A431 (expressing wild-type EGFR gene), human non-small cell lung cancer cell A549 (expressing wild-type EGFR gene), human non-small cell lung cancer cell NCI-H460 (expressing wild-type EGFR gene), human non-small cell lung cancer cell NCI-H2122 (expressing wild-type EGFR gene), Chinese hamster ovary (CHO) cell (Cricetulus griseus, hamster, Chinese, ovary), Chinese hamster lung cell (CHL), mouse pro-B cell BaF3. The cells above were all purchased from (USA).
(§2) The cells were incubated for 72 h, and then the number of viable cells was determined via quantitative determination with a microplate reader by using Cell Titer-Glo® (Promega, the USA) Luminescent Cell Viability Assay kit.
For orientation: In ATP-based viability assays light output follows the ATP content of the culture.

Assay [2] has as its system NCI-H3255 (expressing EGFR L858R mutant gene). As to the kind of experiment: Cancer cell growth, Cell Titer-Glo, 72 h: NCI-H3255. The settings on record: Homo sapiens. Format: cell-based.
From the text: as §1, §2

In assay [3] the test system is PC-9 (expressing EGFR delE746_A750 mutant gene). As to the kind of experiment: Cancer cell growth, Cell Titer-Glo, 72 h: PC-9. The assay is classed as cell-based. The settings on record: Homo sapiens.
From the text: as §1, §2

Assay [4] has as its system HCC827 (expressing EGFR delE746_A750 mutant gene). As to the kind of experiment: Cancer cell growth, Cell Titer-Glo, 72 h: HCC827. Format: cell-based. The settings on record: Homo sapiens.
From the text: as §1, §2

For assay [5], the system named is A431 (expressing wild-type EGFR gene). Description: Cancer cell growth, Cell Titer-Glo, 72 h: A431. Format: cell-based. The settings on record: Homo sapiens.
From the text: as §1, §2

For assay [6], the system named is NCI-H1975 (expressing EGFR L858R/T790M double-mutant gene). Description: Cancer cell growth, Cell Titer-Glo, 72 h: NCI-H1975. Format: cell-based. The settings on record: Homo sapiens.
From the text: as §1, §2

Assay [7] relates to BaF3-TEL-EGFR-L858R (stably expressing EGFR L858R mutant kinase). As to the kind of experiment: Cell growth, Cell Titer-Glo, 72 h: BaF3-TEL-EGFR-L858R. The settings on record: Mus musculus. Format: cell-based.
From the text: (§3) In addition, this example further uses: mouse BaF3-TEL-EGFR (stably expressing wild-type EGFR kinase), mouse BaF3-TEL-EGFR-L858R (stably expressing EGFR L858R mutant kinase), mouse BaF3-TEL-EGFR-T790M (stably expressing EGFR T790M mutant kinase), mouse BaF3-FL-EGFR-DeI19 (stably expressing EGFR delE746_A750 mutant kinase), mouse BaF3-FL-EGFR-T790M-L858R (stably expressing EGFR T790M/L858R mutant kinase), mouse BaF3/P210 (stably expressing bcr/abl˜(P210) mutant kinase), mouse BaF3-TEL-ABL-T315I (stably expressing ABLT315I mutant kinase), mouse BaF3-FLT3-ITD (stably expressing FLT3/ITD mutant kinase), mouse BaF3-TEL-JAK2 (stably expressing JAK2 kinase), mouse BaF3-TEL-JAK3 (stably expressing JAK3 kinase), mouse BaF3-TPR-MET (stably expressing MET kinase), mouse BaF3-TEL-BLK (stably expressing BLK kinase), mouse BaF3-TEL-ABL (stably expressing ABL kinase), mouse BaF3-TEL-BMX (stably expressing BMX kinase), mouse BaF3-TEL-ALK (stably expressing ALK kinase). The above cell lines were all constructed by our laboratory according to the following method: the kinase region sequences of human […], EGFR L858R, EGFR T790M, EGFR delE746_A750, EGFR T790M/L858R, bcr/abl˜(P210), ABL T315I, FLT3/ITD, JAK2, JAK3, MET, BLK, ABL, BMX, ALK were amplified respectively by PCR, inserted respectively into MSCV-Puro vectors harboring N-terminal fragment and/or NPM fragment and/or TPR fragment (Clontech), then the vectors were stably transfected into mouse BaF3 cells by retrovirus methods and growth factor IL-3 was removed, eventually obtaining cell lines that are transferred protein (EGFR, EGFR L858R, EGFR T790M, EGFR delE746_A750, EGFR T790M/L858R, bcr/abl˜(P210), ABL T315I, FLT3/ITD, JAK2, JAK3, MET, BLK, ABL, BMX, ALK)-dependent.
as §2

For assay [8], the system named is BaF3-TEL-EGFR (stably expressing wild-type EGFR kinase). Description: Cell growth, Cell Titer-Glo, 72 h: BaF3-TEL-EGFR. Format: cell-based. The settings on record: Mus musculus.
From the text: as §3, §2

For assay [9], the system named is mouse pro-B cell BaF3. Description: Cell growth, Cell Titer-Glo, 72 h: BaF3. The assay is classed as cell-based.
From the text: as §1, §2

The subject of assay [10] is BaF3-TEL-EGFR-T790M (stably expressing EGFR T790M mutant kinase). Description: Cell growth, Cell Titer-Glo, 72 h: BaF3-TEL-EGFR-T790M. The assay is classed as cell-based. The settings on record: Mus musculus.
From the text: as §3, §2

In assay [11] the test system is NCI-H460 (expressing wild-type EGFR gene). As to the kind of experiment: Cancer cell growth, Cell Titer-Glo, 72 h: NCI-H460. The assay is classed as cell-based. The settings on record: Homo sapiens.
From the text: as §1, §2

Assay [12] relates to NCI-H2122 (expressing wild-type EGFR gene). Description: Cancer cell growth, Cell Titer-Glo, 72 h: NCI-H2122. The settings on record: Homo sapiens, NCI-H2122 cells. Format: cell-based.
From the text: as §1, with “The cells above were all purchased from (USA).” left out
as §2

The test system of assay [13] is BaF3-FL-EGFR-T790M-L858R (stably expressing EGFR T790M/L858R mutant kinase). Description: Cell growth, Cell Titer-Glo, 72 h: BaF3-FL-EGFR-T790M-L858R. Format: cell-based. The settings on record: Mus musculus, BaF3-FL-EGFR-T790M-L858R cells.
From the text: as §3, §2

Assay [14] concerns EGFR and signaling proteins in A549, H1975, PC-9, H3255 and HCC827 cells. Description: Effect on cell signaling pathways (phosphorylation of EGFR and downstream proteins). Format: cell-based, human. The settings on record: A549, H1975, PC-9, H3255, HCC827 cells; 4 hour-treatment; 0.01-3 μM.
Assay [15] relates to BaF3-FL-EGFR-Del19 (stably expressing EGFR delE746_A750 mutant kinase). Description: Cell growth, Cell Titer-Glo, 72 h: BaF3-FL-EGFR-Del19. Format: cell-based. The settings on record: Mus musculus, BaF3-FL-EGFR-Del19 cells.
From the text: In addition, this example further uses: mouse BaF3-TEL-EGFR (stably expressing wild-type EGFR kinase), mouse BaF3-TEL-EGFR-L858R (stably expressing EGFR L858R mutant kinase), mouse BaF3-TEL-EGFR-T790M (stably expressing EGFR T790M mutant kinase), mouse BaF3-FL-EGFR-DeI19 (stably expressing EGFR delE746_A750 mutant kinase), mouse BaF3-FL-EGFR-T790M-L858R (stably expressing EGFR T790M/L858R mutant kinase), mouse BaF3/P210 (stably expressing bcr/abl˜(P210) mutant kinase), mouse BaF3-TEL-ABL-T315I (stably expressing ABLT315I mutant kinase), mouse BaF3-FLT3-ITD (stably expressing FLT3/ITD mutant kinase), mouse BaF3-TEL-JAK2 (stably expressing JAK2 kinase), mouse BaF3-TEL-JAK3 (stably expressing JAK3 kinase), mouse BaF3-TPR-MET (stably expressing MET kinase), mouse BaF3-TEL-BLK (stably expressing BLK kinase), mouse BaF3-TEL-ABL (stably expressing ABL kinase), mouse BaF3-TEL-BMX (stably expressing BMX kinase), mouse BaF3-TEL-ALK (stably expressing ALK kinase). […]
as §2

The mark [16] stands for this setting: A549 cells, 72 h, read-out: GI50.
The mark [17] stands for this setting: NCI-H3255 cells, 72 h, read-out: GI50.
Setting [18] is: PC-9 cells, 72 h, read-out: GI50.
[19] abbreviates: HCC827 cells, 72 h, read-out: GI50.
The mark [20] stands for this setting: A-431, A431 cells, 72 h, read-out: GI50.
Setting [21] is: NCI-H1975 cells, 72 h, read-out: GI50.
The mark [22] stands for this setting: BaF3-TEL-EGFR-L858R cells, read-out: GI50.
[23] abbreviates: BaF3-TEL-EGFR cells, read-out: GI50.
Setting [24] is: BaF3 cells, 72 h, read-out: GI50.
Where [25] appears, read: BaF3-TEL-EGFR-T790M cells, read-out: GI50.
The mark [26] stands for this setting: NCI-H460 cells, 72 h, read-out: GI50.

Where two headings read alike, the source gives them in different places.

The GI50 is the concentration giving 50% growth inhibition.

On to `C=CC(=O)Nc1cc(Nc2nccc(-c3cn(C)c4ccccc34)n2)c(OC)cc1N(C)CCN(C)C` [AZD9291, reference compound], for which the GI50 in [1] (A549, 72 h) turned out to be 5000 nM; in [2] (NCI-H3255, 72 h), 31 nM; in assay [3] (PC-9, 72 h) it was 3 nM; in assay [4] (HCC827, 72 h), 4 nM; in assay [5] (A-431, 72 h) it was […]; in [6] (NCI-H1975, 72 h) it was […]. Besides, the GI50 in [7] came out at 1.7 nM; in assay [8], 1800 nM; in assay [9] (BaF3, 72 h), 2700 nM; in assay [10] it was 22 nM; in assay [11] (NCI-H460, 72 h) it was 4000 nM.
On to `C=CC(=O)Nc1cccc(Nc2nc(Nc3ccc(N4CCN(C(C)=O)CC4)cc3OC)ncc2C(F)(F)F)c1` [CO-1686, reference compound], for which the GI50 in [1] (setting [16]) turned out to be 830 nM; in [2] (setting [17]) it was 250 nM; in assay [3] (setting [18]) it was 130 nM; in [4] (setting [19]), 97 nM; in [5] (setting [20]), 1200 nM; in assay [6] (setting [21]) it was 440 nM. The GI50 in assay [7] (setting [22]) turned out to be 6.3 nM; in assay [8] (setting [23]) it was 2800 nM; in assay [9] (setting [24]), 970 nM; in assay [10] (setting [25]) it was 130 nM; in assay [11] (setting [26]), 2500 nM.
`C=CC(=O)N1CC[C@@H](n2nc(-c3ccc(OCc4cccc(F)c4)c(Cl)c3)c3c(N)ncnc32)C1` [Compound 4, (R)-1-(3-(4-amino-3-(3-chloro-4-((3-fluorobenzyl)oxy)phenyl)-1H-pyrazolo[3,4-d]pyrimidin-1-yl)pyrrolidin-1-yl)prop-2-en-1-one]: the GI50 was found to be 3700 nM in [1] (setting [16]); 28 nM in assay [2] (setting [17]); 28 nM in assay [3] (setting [18]); 130 nM in [12]; 38 nM in assay [4] (setting [19]); 17 nM in [5] (setting [20]). In addition, the GI50 in [6] (setting [21]) was 53 nM; in assay [7] (setting [22]) it was under 0.3 nM; in assay [13], under 0.3 nM; in assay [8] (setting [23]), 13 nM; in [9] (setting [24]) it was 4100 nM.
In the case of `C=CC(=O)N1CCC[C@@H](n2nc(-c3ccc(OCc4cccc(C)n4)c(Cl)c3)c3c(N)ncnc32)C1` [Compound 29, (R)-1-(3-(4-amino-3-(3-chloro-4-((6-methylpyridin-2-yl)methoxy)phenyl)-1H-pyrazolo[3,4-d]pyrimidin-1-yl)piperidin-1-yl)prop-2-en-1-one], the GI50 in assay [1] (setting [16]) was over 10000 nM; in assay [2] (setting [17]), 27 nM; in assay [3] (setting [18]) it was 35 nM; in assay [4] (setting [19]), 36 nM; in assay [5] (setting [20]) it was over 10000 nM; in [6] (setting [21]), under 0.3 nM. Moreover, the 50% growth inhibitory concentration (GI50) was under 0.3 nM in [7] (setting [22]); 6 nM in assay [13]; 5400 nM in [8] (setting [23]); over 10000 nM in [9] (setting [24]); under 0.3 nM in assay [10] (setting [25]); 4000 nM in [11] (setting [26]). In addition, the “phosphorylation of EGFR protein” value in [14] is listed as “strongly inhibit”. The “phosphorylation of proteins such as AKT308, eIF4E, P70S6K and ERK downstream of EGFR” value in assay [14] is “significant effect”.
In the case of `CCC(=O)N1CCC[C@@H](n2nc(-c3ccc(OCc4cccc(F)c4)c(Cl)c3)c3c(N)ncnc32)C1` [Compound 51, (R)-1-(3-(4-amino-3-(3-chloro-4-((3-fluorobenzyl)oxy)phenyl)-1H-pyrazolo[3,4-d]pyrimidin-1-yl)piperidin-1-yl)propan-1-one], the GI50 was over 10000 nM in [1] (setting [16]); over 10000 nM in assay [2] (setting [17]); 3200 nM in assay [3] (setting [18]); 3900 nM in assay [12]; 3900 nM in assay [4] (setting [19]); 9000 nM in assay [5] (setting [20]). Also, the GI50 amounted to 2700 nM in assay [6] (setting [21]); 940 nM in [7] (setting [22]); 1700 nM in assay [13]; 3700 nM in assay [8] (setting [23]); 9200 nM in assay [9] (setting [24]); 1100 nM in assay [10] (setting [25]). The GI50 in assay [15] is 1200 nM.

For the origin of these results see patent US10781214B2, “Kinase inhibitor against wild-type and mutant EGFR” (PRECEDO PHARMACEUTICALS CO., LTD, priority 2015, dated 2020).
